The record followed here is patent US20090163481A1, “PPAR-DELTA LIGANDS AND METHODS OF THEIR USE” (priority 2007, published 2009).

Structures are written as SMILES. pIC50: −log10 of the molar value. Where two headings read alike, the source gives them in different places.

For one experiment, the target named is T1, PPARγ LBD (Homo sapiens, UniProt P37231).
T1 construct: expressed in transfected cells; host or cells: U2-OS (inferred from the general testing procedure)
T1 sequence (P37231 238-503 limits assumed): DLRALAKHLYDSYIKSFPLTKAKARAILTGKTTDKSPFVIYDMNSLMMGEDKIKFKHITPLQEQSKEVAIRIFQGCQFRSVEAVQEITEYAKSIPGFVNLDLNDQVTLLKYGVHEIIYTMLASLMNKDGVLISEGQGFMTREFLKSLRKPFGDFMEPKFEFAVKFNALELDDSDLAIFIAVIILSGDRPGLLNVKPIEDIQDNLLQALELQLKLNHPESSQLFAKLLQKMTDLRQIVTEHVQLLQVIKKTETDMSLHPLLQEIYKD
Description: PPARγ LBD binding and transactivation (ciglitazone competition). In kind it is cell-based. The conditions noted are these: data not shown. An excerpt: Based on the cellular and molecular data generated, treatment of prostate cancer cells with SR 13904 attenuates a number of pro-tumorigenic activities that are likely to be associated with PPARδ. Furthermore, this nuclear receptor is now believed to be a master regulator of nuclear receptors, including both PPARγ and PPARα, and as such the inhibition of PPARδ activity modulates the other target transcription factors.

The next experiment relates to Akt1. Description: Western analysis of phosphorylated Akt1 in growth factor-deprived PC-3 cultures. It is filed as cell-based, human. Conditions: PC-3, 48 h growth factor withdrawal; VLDL 2 μg/ml + LPL 2 μg/ml and/or 10 μM SR13904. The method, then:
The ability of SR 13904 to regulate the cell survival Akt1 signaling pathway was assessed. PC-3 cultures were exposed to apoptosis-inducing growth factor deprivation and harvested for Western analysis of phosphorylated Akt1 and total PTEN protein. PTEN is known to inhibit the Akt1 pathway at the level of PI3-kinase. […] Subsequent studies confirmed this conclusion.
Referring to FIG. 8, PC-3 cells were exposed to 48 h of growth factor withdrawal with and without VLDL SR 13904 (2 μg/ml VLDL+2 μg/ml LPL and/or 10 μM SR13904). Standard western analysis for phospho-serine 473, phospho-tyrosine 308, and PTEN were performed. GAPDH was used as a control.

Another experiment has as its target T2, PPARδ (Homo sapiens, UniProt Q03181).
T2 construct: expressed in transfected cells; host or cells: U2-OS (human bone cancer line)
T2 sequence (Q03181 1-441): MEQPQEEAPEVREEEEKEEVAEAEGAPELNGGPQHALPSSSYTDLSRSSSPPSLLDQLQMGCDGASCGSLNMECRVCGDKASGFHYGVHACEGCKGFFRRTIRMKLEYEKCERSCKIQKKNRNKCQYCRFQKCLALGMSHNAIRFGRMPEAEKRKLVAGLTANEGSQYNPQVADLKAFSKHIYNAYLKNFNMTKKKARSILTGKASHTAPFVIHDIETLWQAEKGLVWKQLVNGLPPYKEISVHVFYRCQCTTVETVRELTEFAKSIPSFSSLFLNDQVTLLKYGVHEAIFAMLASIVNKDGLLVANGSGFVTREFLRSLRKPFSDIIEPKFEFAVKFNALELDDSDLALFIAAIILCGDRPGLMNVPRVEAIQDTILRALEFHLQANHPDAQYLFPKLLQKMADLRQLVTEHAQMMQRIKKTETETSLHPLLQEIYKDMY
Description: PPRE promoter/luciferase reporter (transactivation) assay in U2-OS cells. In kind it is cell-based. The method, then: General Testing Procedures. Each ligand was screened for PPARδ binding and transactivation activity through the use of two complementary reporter assays as described below. In both systems, transfection efficiency was standardized by co-transfection of a control Renilla luciferase. U2-OS (human bone cancer line) cells were used for both assays because this is the cell line of choice for screening PPAR ligands. At 18 h post-transfection, GW 501, with and without the ligands of the disclosure, was added to the cells and incubated for an additional 24 h. The cells were then harvested and luciferase activities profiled.
A promoter/luciferase reporter assay. This assay involves co-transfection of a PPARδ expression vector and a plasmid containing a luciferase gene under the control of PPARδ responsive DNA element (three copies of a consensus PPAR response element, PPRE). This assay was used to directly test ligand effects on PPARδ-responsive genes.
Referring to FIG. 3, U2-OS cells were transiently transfected with appropriate expression and reporter vectors. Ligands were added to the cell cultures 24 h post-transfection and incubated for an additional 16 h. Lipoprotein lipase (LPL; 2 μg/ml) was added with VLDL (5 μg/ml) to release PPARδ-active triglycerides. FIG. 3A: PPARδ LBD/Gal4/UAS-tk-luc competition assays with VLDL SR13904 (0-10 μM). The reporter activation (fold increase over blank) is presented relative to GW501516 at 7 nM (fold increase over blank=100). FIG. 3B: PPRE reporter assays using 0, 1, and 10 μM SR13904+VLDL. All assays were repeated in triplicate.
In general terms: Reporter assays use an easily measured gene product as a stand-in for the process of interest.

In experiment [1] the target is T3, ligand binding domain of PPAR delta (Homo sapiens, UniProt Q03181).
T3 construct: purchased Invitrogen
T3 sequence (Q03181 211-439 limits assumed): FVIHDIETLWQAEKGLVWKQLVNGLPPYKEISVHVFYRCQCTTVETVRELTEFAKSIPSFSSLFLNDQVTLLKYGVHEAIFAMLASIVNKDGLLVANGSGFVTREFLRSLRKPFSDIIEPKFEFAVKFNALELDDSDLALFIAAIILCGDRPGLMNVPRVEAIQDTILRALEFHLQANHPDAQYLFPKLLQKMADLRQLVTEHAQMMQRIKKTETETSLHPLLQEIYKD
Description: LANTHA SCREEN TR-FRET PPARδ Competitive Binding Assay. As for the experimental part:
The LANTHA SCREEN™ TR-FRET PPARδ Competitive Binding Assay was conducted for a variety of compounds according to the instructions provided by the manufacturer (Invitrogen). In addition, proliferation assays were conducted. In Table 2, “Prolif IC50” is the concentration that inhibits cell viability (or growth) by 50% relative to a vehicle control, and “TR-F binding IC50 (μM)” is the concentration that competes binding by a labeled pan-agonist to the ligand binding domain of PPAR delta, by 50%.
For orientation: Time-resolved FRET reads energy transfer from a long-lived donor to a nearby acceptor.

In the case of `Cc1cc(SCc2sc(-c3cccc4ccccc34)nc2C)ccc1OCC(=O)O` [SR 13904], the “interference with ciglitazone binding to PPARγ LBD and transactivation” value on PPARγ LBD is listed as “interfere with ciglitazone binding”. The “phosphorylation of serine 473 and tyrosine 308 on the Akt1 protein” value in the experiment on Akt1 is reported as “completely abolished”. The “inhibition of PPARδ-mediated transactivation” value against PPARδ was “appear to inhibit”. Further, the “reporter expression via PPRE in combination with GW 501” value is “significantly decreased” at PPARδ (1 μM ligand) and “completely inhibited” on PPARδ (10 μM ligand). The “transcription activation of the PPRE reporter to GW501” value at PPARδ (1 and 10 μM ligand with GW501) was “completely eliminated”. Also, the “VLDL-related activation of the PPAR promoter element (PPRE) construct” value on PPARδ (co-treatment with 1 μM) is recorded as “completely block”. Also, the pIC50 in experiment [1] (competes binding by a labeled pan-agonist by 50%, * = determined by approximation from a semi log graph, read-out: TR-F binding IC50) was 5.62; in experiment [1] (repeat determination of TR-F binding IC50, read-out: repeat TR-F), 5.68.
